In patent publication US20080015217A1, “ANTIOXIDANT COMBINATIONS FOR USE IN RUMINANT FEED RATIONS” (NOVUS INTERNATIONAL, INC., priority 2006, published 2008):

Legend:
[1] = Oil stability index (OSI) method, soybean oil; details: 500 ppm antioxidant, FIG. 1
[2] = Active oxygen method (AOM), soybean oil; details: soybean oil subjected to oxidative stress, 500 ppm antioxidant, FIG. 1

CCOc1ccc2c(c1)C(C)=CC(C)(C)N2 [ETX, 6-ethoxy-1,2-dihydro-2,2,4-trimethylquinoline]
OSI induction time [1]: about 6 hr
peroxide values [2]: about 11 meq
